Results: US4439426A, “Semisynthetic macrolidic antibiotics, intermediate compounds for their preparation and related pharmaceutical compositions containing them” (priority 1981, dated 1984)
Like-named read-outs stand apart in the source and are kept apart here.

Key:
Type in all cases: cell-based
[1] = system: Streptococcus pyogenes ATCC 8668 LRP 34; assay: Minimum bactericidal concentration (MBC)
From the text: (§1) the bacterial power, expressed as the minimum bactericidal power (MBC) against some Gram positive aerobic stocks (table 5).

[2] = system: Corynebacterium diphteriae LRP 24; assay: Minimum bactericidal concentration (MBC); conditions: for MBC: Corynebacterium, LRP24, read-out: Minimum bactericidal concentration (MBC)
From the text: as §1

[3] = system: Streptococcus faecalis subs. zymogenes LRP 61; assay: Minimum bactericidal concentration (MBC); conditions: for MBC: Enterococcus faecalis, read-out: Minimum bactericidal concentration (MBC)
From the text: as §1

[4] = system: Streptococcus pneumoniae ATCC 6303 LRP 35; assay: Minimum bactericidal concentration (MBC); conditions: for MBC: Streptococcus pneumoniae, ATCC6303, read-out: Minimum bactericidal concentration (MBC)
From the text: as §1

[5] = system: Staphylococcus aureus ATCC 6538 P LRP 39; assay: Minimum bactericidal concentration (MBC); conditions: for MBC: Staphylococcus aureus, ATCC6538, read-out: Minimum bactericidal concentration (MBC)
From the text: as §1

Shigella sonnei LRP 5 = assay: Bacteriostatic power in solid medium (MIC); conditions: LRP5, read-out: Minimum inhibiting concentration
From the text: (§2) the bacteriostatic power, expressed as the minimum inhibiting concentration (MIC) against both aerobic and anaerobic, Gram positive and Gram negative, bacterial stocks: the related results are reported in the tables 2 and 3.

[6] = system: Proteus vulgaris ATCC 6380 LRP 13; assay: Bacteriostatic power in solid medium (MIC); conditions: Proteus vulgaris, ATCC6380; solid medium; read-out: Minimum inhibiting concentration
From the text: as §2

[7] = system: Bacteroides fragilis ATCC 23745 LRP 205; assay: Bacteriostatic power in solid medium (MIC); conditions: Bacteroides fragilis, ATCC23745; solid medium; anaerobic; read-out: Minimum inhibiting concentration
From the text: as §2

[8] = system: Streptococcus pyogenes ATCC 8668 LRP 34; assay: Bacteriostatic power in solid medium (MIC); conditions: Streptococcus pyogenes, ATCC8668; solid medium; read-out: Minimum inhibiting concentration
From the text: as §2

[9] = system: Streptococcus pneumoniae ATCC 6303 LRP 53; assay: Bacteriostatic power in solid medium (MIC); conditions: Streptococcus pneumoniae, ATCC6303; solid medium; read-out: Minimum inhibiting concentration
From the text: as §2

[10] = system: Pseudomonas aeruginosa LRP 9; assay: Bacteriostatic power in solid medium (MIC); conditions: Pseudomonas aeruginosa, LRP9; solid medium; read-out: Minimum inhibiting concentration
From the text: as §2

[11] = system: Klelsiella pneumoniae LRP 54; assay: Bacteriostatic power in solid medium (MIC); conditions: solid medium; read-out: Minimum inhibiting concentration
From the text: as §2

[12] = system: Corynebacterium diphteriae LRP 24; assay: Bacteriostatic power in solid medium (MIC); conditions: Corynebacterium, LRP24; solid medium; read-out: Minimum inhibiting concentration
From the text: as §2

Bacillus subtilis LRP 25 = assay: Bacteriostatic power in solid medium (MIC); conditions: Bacillus subtilis, LRP25; solid medium; read-out: Minimum inhibiting concentration
From the text: as §2

[13] = system: Acholeplasma laidlawii ATCC 23206 LRP 204; assay: Bacteriostatic power in solid medium (MIC); conditions: Acholeplasma laidlawii, ATCC23206; solid medium; read-out: Minimum inhibiting concentration
From the text: as §2

Escherichia coli LRP 50 = assay: Bacteriostatic power in solid medium (MIC); conditions: Escherichia coli, LRP50; solid medium; read-out: Minimum inhibiting concentration
From the text: as §2

[14] = system: Streptococcus pyogenes ATCC 8668 LRP 197; assay: Bacteriostatic power in solid medium (MIC); conditions: Streptococcus pyogenes, ATCC8668; solid medium; read-out: Minimum inhibiting concentration
From the text: as §2

[15] = system: Streptococcus pneumoniae ATCC 6303 LRP 35; assay: Bacteriostatic power in solid medium (MIC); conditions: Streptococcus pneumoniae, ATCC6303; solid medium; read-out: Minimum inhibiting concentration
From the text: as §2

[16] = system: Mycoplasma hominis I ATCC 14027 LRP 211; assay: Bacteriostatic power in solid medium (MIC); conditions: Metamycoplasma hominis, ATCC14027; solid medium; read-out: Minimum inhibiting concentration
From the text: as §2

[17] = system: Streptococcus faecalis LRP 7; assay: Bacteriostatic power in solid medium (MIC); conditions: Enterococcus faecalis, LRP7; solid medium; read-out: Minimum inhibiting concentration
From the text: as §2

[18] = system: Staphylococcus aureus ATCC 6538P LRP 39; assay: Bacteriostatic power in solid medium (MIC); conditions: Staphylococcus aureus, ATCC6538P; solid medium; read-out: Minimum inhibiting concentration
From the text: as §2

[19] = system: Staphylococcus aureus ATCC 14154 LRP 78; assay: Bacteriostatic power in solid medium (MIC); conditions: Staphylococcus aureus, ATCC14154, read-out: Minimum inhibiting concentration
From the text: as §2

[20] = system: Fusobacteriumnecrophroum ATCC 27852 LRP 210; assay: Bacteriostatic power in solid medium (MIC); conditions: solid medium; anaerobic; read-out: Minimum inhibiting concentration
From the text: as §2

[21] = system: Neisseria gonorrhoeae ATCC 19424 LRP 214; assay: Bacteriostatic power in solid medium (MIC); conditions: Neisseria gonorrhoeae, ATCC19424; solid medium; read-out: Minimum inhibiting concentration
From the text: as §2

[22] = system: Haemophilus influenzae ATCC 19418 LRP 213; assay: Bacteriostatic power in solid medium (MIC); conditions: Haemophilus influenzae, ATCC19418, read-out: Minimum inhibiting concentration
From the text: as §2

[23] = system: Micrococcus luteus ATCC 15957 LRP 193; assay: Bacteriostatic power in solid medium (MIC); conditions: Micrococcus luteus, ATCC15957; solid medium; Erythromycin resistant; read-out: Minimum inhibiting concentration
From the text: as §2

[24] = system: Micrococcus luteus ATCC 9341 LRP 6; assay: Bacteriostatic power in solid medium (MIC); conditions: Micrococcus luteus, ATCC9341; solid medium; read-out: Minimum inhibiting concentration
From the text: as §2

[25] = system: Streptococcus faecalis subsp. zymogenes ATCC 12958 LRP 61; assay: Bacteriostatic power in solid medium (MIC); conditions: Enterococcus faecalis, ATCC12958; solid medium; read-out: Minimum inhibiting concentration
From the text: as §2

[26] = system: Staphylococcus aureus ATCC 6538P LRP 14; assay: Bacteriostatic power in solid medium (MIC); conditions: Staphylococcus aureus, ATCC6538P; solid medium; Penycilline resistant; read-out: Minimum inhibiting concentration
From the text: as §2

[27] = system: Streptococcus pneumoniae ATCC 6303 LRP 52; assay: Bacteriostatic power in solid medium (MIC); conditions: Streptococcus pneumoniae, ATCC6303; solid medium; read-out: Minimum inhibiting concentration
From the text: as §2

[28] = system: Clostridium perfrigens ATCC 3624 LRP 206; assay: microbe, parasite or virus in culture; conditions: ATCC3624, solid medium, anaerobic, read-out: Minimum inhibiting concentration
From the text: as §2

Salmonella typhy LRP 8 = assay: microbe, parasite or virus in culture; conditions: LRP8, solid medium, read-out: Minimum inhibiting concentration
From the text: as §2

[29] = system: Streptococcus pyogenes ATCC 8668 LRP 34; assay: Bacteriostatic power in liquid medium (MIC); conditions: Streptococcus pyogenes, ATCC8668; liquid medium; read-out: Minimum inhibiting concentration
From the text: as §2

[30] = system: Corynebacterium diphteriae LRP 24; assay: Bacteriostatic power in liquid medium (MIC); conditions: Corynebacterium, LRP24; liquid medium; read-out: Minimum inhibiting concentration
From the text: as §2

[31] = system: Streptococcus pneumoniae ATCC 6303 LRP 35; assay: Bacteriostatic power in liquid medium (MIC); conditions: Streptococcus pneumoniae, ATCC6303; liquid medium; read-out: Minimum inhibiting concentration
From the text: as §2

[32] = system: Streptococcus faecalis subs. zymogenes ATCC 12958 LRP 61; assay: Bacteriostatic power in liquid medium (MIC); conditions: Enterococcus faecalis, ATCC12958; liquid medium; read-out: Minimum inhibiting concentration
From the text: as §2

[33] = system: Staphylococcus aureus ATCC 6538 P LRP 39; assay: Bacteriostatic power in liquid medium (MIC); conditions: Staphylococcus aureus, ATCC6538; liquid medium; read-out: Minimum inhibiting concentration
From the text: as §2

CO[C@H]1C[C@H](O[C@H]2[C@H](C)[C@@H](O[C@@H]3O[C@H](C)C[C@H](N(C)C)[C@H]3O)[C@@H](C)C[C@@]3(CO3)C(=O)[C@H](C)[C@@H](O)[C@@H](C)[C@@H](C)OC(=O)[C@@H]2C)O[C@@H](C)[C@@H]1O [Oleandomycin, reference compound]
0.195 µg/mL: MIC [8] | MIC [9] | MIC [14] | MIC [15] | MIC [27] | MIC [29] | MIC [31]
0.097 µg/mL: MIC [12] | MIC [30]
4: MBC/MIC [2] | MBC/MIC [4]
25 µg/mL: MIC (Shigella sonnei LRP 5) | MIC [6] | MIC [10] | MIC [11] | MIC (Escherichia coli LRP 50) | MIC [16] | MIC [19] | MIC [22] | MIC [23] | MIC (Salmonella typhy LRP 8)
> 12.5 µg/mL: MBC [3]
1.56 µg/mL: MIC [17] | MIC [25] | MIC [32]
0.78 µg/mL: MBC [4]
3.12 µg/mL: MBC ([1]; Streptococcus pyogenes, ATCC8668, read-out: Minimum bactericidal concentration (MBC)) | MIC [28]
0.39 µg/mL: MBC [2] | MIC [7] | MIC (Bacillus subtilis LRP 25) | MIC [18] | MIC [21] | MIC [26] | MIC [33]
16: MBC/MIC [1] | MBC/MIC [5]
0.049 µg/mL: MIC [24]
> 8: MBC/MIC [3]
6.25 µg/mL: MBC [5] | MIC [13] | MIC [20]

CC[C@H]1OC(=O)[C@H](C)[C@@H](O[C@H]2C[C@@](C)(OC)[C@@H](O)[C@H](C)O2)[C@H](C)[C@@H](O[C@@H]2O[C@H](C)C[C@H](N(C)C)[C@H]2O)[C@](C)(O)C[C@@H](C)C(=O)[C@H](C)[C@@H](O)[C@H]1C [Erythromycin B, reference compound]
0.195 µg/mL: MBC ([1]; Streptococcus pyogenes, ATCC8668; read-out: Minimum bactericidal concentration (MBC)) | MBC [2] | MBC [4] | MIC [7] | MIC [17] | MIC [25] | MIC [26] | MIC [33]
1.56 µg/mL: MIC [28]
0.049 µg/mL: MIC (Bacillus subtilis LRP 25) | MIC [31]
16: MBC/MIC [2] | MBC/MIC [3]
0.39 µg/mL: MIC [32]
8: MBC/MIC [1]
0.012 µg/mL: MIC [12] | MIC [30]
0.097 µg/mL: MIC [13] | MIC [18] | MIC [21]
6.25 µg/mL: MBC [3] | MBC [5] | MIC [20] | MIC [22]
0.006 µg/mL: MIC [24]
25 µg/mL: MIC (Shigella sonnei LRP 5) | MIC [6] | MIC [10] | MIC [11] | MIC (Escherichia coli LRP 50) | MIC [16] | MIC [19] | MIC [23] | MIC (Salmonella typhy LRP 8)
32: MBC/MIC [5]
0.024 µg/mL: MIC [8] | MIC [9] | MIC [14] | MIC [15] | MIC [27] | MIC [29]
4: MBC/MIC [4]
